Among the test systems are M14; KM12; SK-OV-3; SF-539; COLO 205; IGROV-1; SK-MEL-5; HCC 2998; LOX IMVI; SK-MEL-28; NCI-H460; SW-620; SF-268; SNB-75; OVCAR-5; HOP-92; UACC-257; SNB-19; OVCAR-3; HCT-15.
Common to all, as to assay: inhibition of tumour cell growth, NCI panel, 48 h

Results on four compounds are retold here after ChEMBL document CHEMBL1201862, “PubChem BioAssay data set” (2004).

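Following 48 hours of exposure in 96-well plates, responses at five concentrations were used to interpolate endpoints linearly. Abbreviation: GI50, concentration required for 50% inhibition of growth.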 Activity calls are given as the source filed them. Cut-off read from the data, not from the text of the source: active = GI50 up to about 1.1 µM and inactive = higher. A value given as a limit tells only on which side of the number the result lay.

In the case of `CCOC(=O)NC(Nc1ncccn1)(C(=O)OCC)C(F)(F)F` (stereo not drawn), the GI50 is > 100 µM (inactive) in the test on M14; > 100 µM (inactive) in the test with KM12; > 10 µM (inactive) with SK-OV-3; > 100 µM (inactive) in the test with SF-539; > 100 µM (inactive) in the test on COLO 205; > 100 µM (inactive) in the test on IGROV-1. Moreover, the GI50 with SK-MEL-5, in the test with HCC 2998, in the test with LOX IMVI, in the test on SK-MEL-28, in the test on NCI-H460 and in the test with SW-620 was > 100 µM (inactive) throughout. Also, the GI50 in the test on SF-268, in the test with SNB-75, in the test with OVCAR-5, in the test with HOP-92, in the test with UACC-257 and in the test with SNB-19 was > 100 µM (inactive) each time. The GI50 is > 100 µM (inactive) in the test with OVCAR-3 and above 100 µM in the test on HCT-15.
For the compound `CCC(C(=O)O)c1ccc(OC)cc1` (stereo not drawn), the GI50 in the test with M14, in the test with KM12, in the test with SK-OV-3, in the test on SF-539, in the test on COLO 205 and with IGROV-1 was > 100 µM (inactive) throughout. In addition, the GI50 in the test with SK-MEL-5, with HCC 2998, in the test with LOX IMVI, with SK-MEL-28, with NCI-H460 and in the test on SW-620 was > 100 µM (inactive) each time. For the same compound, the GI50 with SF-268, with SNB-75, in the test with OVCAR-5, with HOP-92, with UACC-257 and with SNB-19 was > 100 µM (inactive) in each case. Moreover, in the test on OVCAR-3, the GI50 was > 100 µM (inactive).
For the compound `Clc1ccc(C[P+](c2ccccc2)(c2ccccc2)c2ccccc2)c(Cl)c1`, the GI50 with M14 is 3.18 µM (inactive); in the test with KM12, 1.69 µM (inactive); in the test on SK-OV-3, 3.75 µM (inactive); in the test with SF-539 it was 3.06 µM (inactive); in the test on COLO 205 it was 1.16 µM (inactive); in the test with IGROV-1 it was 1.87 µM (inactive). Also, the GI50 in the test on SK-MEL-5 is 1.38 µM (inactive); in the test with HCC 2998, 3.47 µM (inactive); in the test with LOX IMVI, 3.28 µM (inactive); with SK-MEL-28, 5.98 µM (inactive); in the test on NCI-H460, 2.4 µM (inactive); in the test on SW-620, 2.94 µM (inactive). For the same compound, the GI50 in the test with SF-268 was 3.94 µM (inactive); in the test with SNB-75, 2.77 µM (inactive); in the test on OVCAR-5, 2.37 µM (inactive); with HOP-92 it was 1.71 µM (inactive); in the test with UACC-257, 1.04 µM (active); in the test with SNB-19 it was 3.04 µM (inactive). The values for the GI50 with OVCAR-3 and in the test on HCT-15 were 2.58 µM (inactive) and 24 µM, respectively.
On to `OC[C@H]1O[C@@H](n2cnc3cncnc32)[C@H](O)[C@@H]1O` [NEBULARINE], for which the GI50 in the test on KM12 was 1.01 µM (active); with SK-OV-3 it was 0.953 µM (active); with SF-539, 1.43 µM (inactive); in the test with COLO 205, 0.417 µM (active); in the test with IGROV-1 it was 0.64 µM (active); in the test on SK-MEL-5, 1.67 µM (inactive). For the same compound, the GI50 with HCC 2998 was 0.989 µM (active); in the test on LOX IMVI, 0.977 µM (active); in the test on SK-MEL-28 it was 1.39 µM (inactive); in the test on NCI-H460, 0.593 µM (active); in the test with SW-620, 0.462 µM (active); with SF-268 it was 1.09 µM (active). For the same compound, the GI50 with SNB-75 was 0.628 µM (active); with OVCAR-5, 1.4 µM (inactive); in the test with HOP-92 it was 0.656 µM (active); in the test on UACC-257, 1.61 µM (inactive); in the test with SNB-19 it was 1.45 µM (inactive); with OVCAR-3, 1.65 µM (inactive). The compound further gave a GI50 with HCT-15 of 0.692 µM.
